{"source": "patent US20250134952A1", "about": "“METHODS FOR IMPROVING THE EFFICACY OF HDAC INHIBITOR THERAPY AND PREDICTING THE RESPONSE TO TREATMENT WITH HDAC INHIBITOR” (INSTITUT NATIONAL DE LA SANTÉ ET DE LA RECHERCHE MÉDICALE, priority 2021, published 2025)", "test_system": "chromatin remodeling (pericentromeric heterochromatin)", "assay": "Chromatin remodeling with G9a inhibitor, effect of Tau (data not shown)", "format": "cell-based"}
{"molecule": "COc1cc2nc(N3CCCN(C)CC3)nc(NC3CCN(Cc4ccccc4)CC3)c2cc1OC", "note": "[BIX 01294]", "values": [{"measurement": "effect of Tau in preventing chromatin remodeling, compared with trichostatin A", "result": "same results"}]}
